Assay results from patent publication US10750743B2, “Pyridazinone herbicides” (E.I. DU PONT DE NEMOURS AND COMPANY, priority 2015, dated 2020).

Columns and labels:
Assay type in all cases: in vivo
[1] = test system: ducksalad (Heteranthera limosa); test: Test B flooded paddy test, visual rating; details: Heteranthera limosa, 360 h; Flood, 250 g ai/ha, applied to paddy water, rated after 13 to 15 d; read-out: Ducksalad plant response rating (0 to 100 scale, 0 is no effect, 100 is complete control)
Summary of the method: (§1)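 Plants grown to the 2-leaf stage. At treatment, pots were flooded to 3 cm above the soil, compound was applied directly to the paddy water, and that depth was held throughout. After 13 to 15 d in the greenhouse, response was rated visually against controls on a 0 (no effect) to 100 (complete control) scale.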

[2] = test system: sedge, umbrella (small-flower umbrella sedge, Cyperus difformis); test: Test B flooded paddy test, visual rating; details: Cyperus difformis, 360 h; Flood, 250 g ai/ha, applied to paddy water, rated after 13 to 15 d; read-out: Sedge, Umbrella plant response rating (0 to 100 scale, 0 is no effect, 100 is complete control)
Summary of the method: as §1

[3] = test system: barnyardgrass (Echinochloa crus-galli); test: Test B flooded paddy test, visual rating; details: Echinochloa crus-galli, 360 h; Flood, 250 g ai/ha, applied to paddy water, rated after 13 to 15 d; read-out: Barnyardgrass plant response rating (0 to 100 scale, 0 is no effect, 100 is complete control)
Summary of the method: as §1

[4] = test system: foxtail, giant (giant foxtail, Setaria faberii); test: Test A preemergence, directed soil spray, visual injury rating; details: Setaria faberi, pre-emergence, 240 h, 0 is no effect, 100 is complete control, read-out: Plant response rating (0 to 100 scale), Foxtail, Giant; for pest or weed control at 125 g/ha: 125 g ai/ha; for pest or weed control at 500 g/ha: 500 g ai/ha
Summary of the method: (§2)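 Compounds in a surfactant-containing solvent were applied as a directed soil spray preemergence, or postemergence to plants 2-10 cm tall at the one- to two-leaf stage, in loam-sand blend. After about 10 d in the greenhouse, injury was rated visually against untreated controls on a 0-100 scale (100 = complete control).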

kochia (Kochia scoparia) [5] = test: as above; details: Bassia scoparia, pre-emergence, 240 h, 0 is no effect, 100 is complete control, read-out: Plant response rating (0 to 100 scale), Kochia; for pest or weed control at 125 g/ha: 125 g ai/ha; for pest or weed control at 500 g/ha: 500 g ai/ha
Summary of the method: as §2

[6] = test system: pigweed (Amaranthus retroflexus); test: as above; details: Amaranthus retroflexus, pre-emergence, 240 h, 0 is no effect, 100 is complete control, read-out: Plant response rating (0 to 100 scale), Pigweed; for pest or weed control at 125 g/ha: 125 g ai/ha; for pest or weed control at 500 g/ha: 500 g ai/ha
Summary of the method: as §2

[7] = test system: barnyardgrass (Echinochloa crus-galli); test: as above; details: Echinochloa crus-galli, pre-emergence, 240 h, 0 is no effect, 100 is complete control, read-out: Plant response rating (0 to 100 scale), Barnyardgrass; for pest or weed control at 125 g/ha: 125 g ai/ha; for pest or weed control at 500 g/ha: 500 g ai/ha
Summary of the method: as §2

[8] = test system: ragweed (common ragweed, Ambrosia elatior); test: as above; details: Ambrosia artemisiifolia, pre-emergence, 240 h, 0 is no effect, 100 is complete control, read-out: Plant response rating (0 to 100 scale), Ragweed; for pest or weed control at 125 g/ha: 125 g ai/ha; for pest or weed control at 500 g/ha: 500 g ai/ha
Summary of the method: as §2

[9] = test system: ryegrass, It. (Italian ryegrass, Lolium multiflorum); test: as above; details: Lolium multiflorum, pre-emergence, 240 h, 0 is no effect, 100 is complete control, read-out: Plant response rating (0 to 100 scale), Ryegrass, It.; for pest or weed control at 125 g/ha: 125 g ai/ha; for pest or weed control at 500 g/ha: 500 g ai/ha
Summary of the method: as §2

[10] = test system: foxtail, giant (giant foxtail, Setaria faberii); test: Test A postemergence application, visual injury rating; details: Setaria faberi, post-emergence, 240 h, 0 to 100 scale, 0 no effect, 100 complete control, read-out: Foxtail, Giant plant response rating; for pest or weed control at 125 g/ha: 125 g ai/ha; for pest or weed control at 500 g/ha: 500 g ai/ha
Summary of the method: as §2

corn (Zea mays) = test: as above; details: Zea mays, post-emergence, 240 h, 0 to 100 scale, 0 no effect, 100 complete control, read-out: Corn plant response rating; for plant injury at 125 g/ha: 125 g ai/ha; for plant injury at 500 g/ha: 500 g ai/ha
Summary of the method: as §2

kochia (Kochia scoparia) [11] = test: as above; details: Bassia scoparia, post-emergence, 240 h, 0 to 100 scale, 0 no effect, 100 complete control, read-out: Kochia plant response rating; for pest or weed control at 125 g/ha: 125 g ai/ha; for pest or weed control at 500 g/ha: 500 g ai/ha
Summary of the method: as §2

[12] = test system: wheat (Triticum aestivum); test: as above; details: Triticum aestivum, post-emergence, 240 h, 0 to 100 scale, 0 no effect, 100 complete control, read-out: Wheat plant response rating; for plant injury at 125 g/ha: 125 g ai/ha; for plant injury at 500 g/ha: 500 g ai/ha
Summary of the method: as §2

[13] = test system: pigweed (Amaranthus retroflexus); test: as above; details: Amaranthus retroflexus, post-emergence, 240 h, 0 to 100 scale, 0 no effect, 100 complete control, read-out: Pigweed plant response rating; for pest or weed control at 125 g/ha: 125 g ai/ha; for pest or weed control at 500 g/ha: 500 g ai/ha
Summary of the method: as §2

[14] = test system: barnyardgrass (Echinochloa crus-galli); test: as above; details: Echinochloa crus-galli, post-emergence, 240 h, 0 to 100 scale, 0 no effect, 100 complete control, read-out: Barnyardgrass plant response rating; for pest or weed control at 125 g/ha: 125 g ai/ha; for pest or weed control at 500 g/ha: 500 g ai/ha
Summary of the method: as §2

[15] = test system: ragweed (common ragweed, Ambrosia elatior); test: as above; details: Ambrosia artemisiifolia, post-emergence, 240 h, 0 to 100 scale, 0 no effect, 100 complete control, read-out: Ragweed plant response rating; for pest or weed control at 125 g/ha: 125 g ai/ha; for pest or weed control at 500 g/ha: 500 g ai/ha
Summary of the method: as §2

[16] = test system: blackgrass (Alopecurus myosuroides); test: as above; details: Alopecurus myosuroides, post-emergence, 240 h, 0 to 100 scale, 0 no effect, 100 complete control, read-out: Blackgrass plant response rating; for pest or weed control at 125 g/ha: 125 g ai/ha; for pest or weed control at 500 g/ha: 500 g ai/ha
Summary of the method: as §2

[17] = test system: ryegrass, It. (Italian ryegrass, Lolium multiflorum); test: as above; details: Lolium multiflorum, post-emergence, 240 h, 0 to 100 scale, 0 no effect, 100 complete control, read-out: Ryegrass, It. plant response rating; for pest or weed control at 125 g/ha: 125 g ai/ha; for pest or weed control at 500 g/ha: 500 g ai/ha
Summary of the method: as §2

[18] = test system: galium (catchweed bedstraw, Galium aparine); test: as above; details: Galium, post-emergence, 240 h, 0 to 100 scale, 0 no effect, 100 complete control, read-out: Galium plant response rating; for pest or weed control at 125 g/ha: 125 g ai/ha; for pest or weed control at 500 g/ha: 500 g ai/ha
Summary of the method: as §2

SMILES | pest or weed control at 250 g/ha [1] | pest or weed control at 250 g/ha [2] | pest or weed control at 250 g/ha [3] | pest or weed control at 125 g/ha [4] | pest or weed control at 500 g/ha [4] | pest or weed control at 125 g/ha (kochia (Kochia scoparia) [5]) | pest or weed control at 500 g/ha (kochia (Kochia scoparia) [5]) | pest or weed control at 125 g/ha [6] | pest or weed control at 500 g/ha [6] | pest or weed control at 125 g/ha [7] | pest or weed control at 500 g/ha [7] | pest or weed control at 125 g/ha [8] | pest or weed control at 500 g/ha [8] | pest or weed control at 125 g/ha [9] | pest or weed control at 500 g/ha [9] | pest or weed control at 125 g/ha [10] | pest or weed control at 500 g/ha [10] | plant injury at 125 g/ha (corn (Zea mays)) | plant injury at 500 g/ha (corn (Zea mays)) | pest or weed control at 125 g/ha (kochia (Kochia scoparia) [11]) | also measured
CC(=O)Oc1c(C)nn(C)c(=O)c1-c1c(C)ccc2cc(C)oc12 [Compound 11, 5-(acetyloxy)-4-(2,6-dimethyl-7-benzofuranyl)-2,6-dimethyl-3(2H)-pyridazinone] | 0% | 0% | 0% | 50% | 100% | 90% | 100% | 100% | 100% | 50% | 100% | 90% | 100% | 100% | 100% | 60% | 80% | 0% | 30% | 100% | pest or weed control at 500 g/ha (kochia (Kochia scoparia) [11]): 100%; plant injury at 125 g/ha [12]: 0%; plant injury at 500 g/ha [12]: 40%; pest or weed control at 125 g/ha [13]: 90%; pest or weed control at 500 g/ha [13]: 100%; pest or weed control at 125 g/ha [14]: 30%; pest or weed control at 500 g/ha [14]: 60%; pest or weed control at 125 g/ha [15]: 100%; pest or weed control at 500 g/ha [15]: 100%; pest or weed control at 125 g/ha [16]: 60%; pest or weed control at 500 g/ha [16]: 90%; pest or weed control at 125 g/ha [17]: 100%; pest or weed control at 500 g/ha [17]: 100%; pest or weed control at 125 g/ha [18]: 90%; pest or weed control at 500 g/ha [18]: 90%
Cc1cc2cccc(-c3c(O)c(C)nn(C)c3=O)c2o1 [Compound 12, 5-hydroxy-2,6-dimethyl-4-(2-methyl-7-benzofuranyl)-3(2H)-pyridazinone] | 0% | 0% | 0% | 10% | 60% | 60% | 100% | 60% | 100% | 0% | 50% | 60% | 80% | 100% | 100% | 20% | 40% | 0% | 10% | 0% | pest or weed control at 500 g/ha (kochia (Kochia scoparia) [11]): 50%; plant injury at 125 g/ha [12]: 0%; plant injury at 500 g/ha [12]: 20%; pest or weed control at 125 g/ha [13]: 30%; pest or weed control at 500 g/ha [13]: 50%; pest or weed control at 125 g/ha [14]: 10%; pest or weed control at 500 g/ha [14]: 30%; pest or weed control at 125 g/ha [15]: 40%; pest or weed control at 500 g/ha [15]: 80%; pest or weed control at 125 g/ha [16]: 40%; pest or weed control at 500 g/ha [16]: 80%; pest or weed control at 125 g/ha [17]: 90%; pest or weed control at 500 g/ha [17]: 100%; pest or weed control at 125 g/ha [18]: 80%; pest or weed control at 500 g/ha [18]: 90%
